From publication PMC10485906, “Development of a Dihydroquinoline–Pyrazoline GluN2C/2D-Selective Negative Allosteric Modulator of the N-Methyl-D-aspartate Receptor” (ACS Chemical Neuroscience, 2023)

Columns and labels:
[1] = molecular target: T1, GluK2 (Rattus norvegicus, UniProt P42260); assay: Off-target, oocytes, GluK2; assay type: cell-based; details: 1 µM compound; 100 µM glutamate
T1 construct: expressed in transfected cells; host or cells: Xenopus oocytes (cRNA injection)
Experimental: (§1) Analysis of Off-target Actions
(§2) Compound (S)-(-)-2i was tested at 1 µM for actions at glycine-activated GluN1/GluN3A (human GluN1-F484A,T518L/GluN3A referred to a GluN1-FA,TL/GluN3A) and rat GluN1-4a/GluN3B in the presence of 0.5 µM CGP-78608. cRNA injection ratios for GluN1/GluN3 were 1:2. Compound (S)-(-)- 2i was also tested for actions at AMPA (rat GluA1, rat GluA2, human GluA3-L531Y), kainate (rat GluK2), nicotinic acetylcholine (rat α7 and α4β2, cRNA ratio 1:1), GABAA (rat α1β2γ2S, cRNA ratio 1:1:1), GABAC (rat ρ1), glycine (rat α1), and purinergic (human P2X) receptors expressed in Xenopus oocytes. cRNA encoding the receptor subunits was synthesized from linear template cDNA using the mMessage mMachine kit (Ambion). Oocytes were injected with 1-5 ng cRNA in a 50 nL volume and incubated in Barth's solution at 15°C for 2-5 days prior to recording. GluK2-expressing oocyte were incubated in 1 mg/ml (10 µM) concanavalin-A for 10 min prior to recording. The cDNAs encoding GABAC and glycine subunits were provided by Dr. D. Weiss (University of Texas Health Science Center at San Antonio). cDNAs encoding nicotinic acetylcholine receptor subunits were provided by Drs. […]
(§3) GABA. […] Responses in presence of test compound were expressed as a percent of control. […]

[2] = molecular target: hGluN1-FA,TL/hGluN3A (Homo sapiens, UniProt Q05586+Q8TCU5, F484A/T518L); assay: Off-target, oocytes, GluN1/GluN3A; assay type: cell-based; details: 1 µM compound; 100 µM glycine
Experimental: as §1, §2, §3

[3] = test system: hP2x; assay: Off-target, oocytes, purinergic receptor; assay type: cell-based, human; details: 1 µM compound; 9 µM ATP
Experimental: as §1, §2, §3

[4] = molecular target: T2, GluA1 (Rattus norvegicus, UniProt P19490); assay: Off-target, oocytes, GluA1; assay type: cell-based; details: 1 µM compound; 100 µM glutamate
T2 construct: expressed in transfected cells; host or cells: Xenopus oocytes (cRNA injection)
Experimental: as §1, §2, §3

[5] = test system: hGluA3-L531Y; assay: Off-target, oocytes, GluA3; assay type: cell-based, human; details: 1 µM compound; 100 µM glutamate
Experimental: as §1, §2, §3

T1 sequence (P42260 32-908): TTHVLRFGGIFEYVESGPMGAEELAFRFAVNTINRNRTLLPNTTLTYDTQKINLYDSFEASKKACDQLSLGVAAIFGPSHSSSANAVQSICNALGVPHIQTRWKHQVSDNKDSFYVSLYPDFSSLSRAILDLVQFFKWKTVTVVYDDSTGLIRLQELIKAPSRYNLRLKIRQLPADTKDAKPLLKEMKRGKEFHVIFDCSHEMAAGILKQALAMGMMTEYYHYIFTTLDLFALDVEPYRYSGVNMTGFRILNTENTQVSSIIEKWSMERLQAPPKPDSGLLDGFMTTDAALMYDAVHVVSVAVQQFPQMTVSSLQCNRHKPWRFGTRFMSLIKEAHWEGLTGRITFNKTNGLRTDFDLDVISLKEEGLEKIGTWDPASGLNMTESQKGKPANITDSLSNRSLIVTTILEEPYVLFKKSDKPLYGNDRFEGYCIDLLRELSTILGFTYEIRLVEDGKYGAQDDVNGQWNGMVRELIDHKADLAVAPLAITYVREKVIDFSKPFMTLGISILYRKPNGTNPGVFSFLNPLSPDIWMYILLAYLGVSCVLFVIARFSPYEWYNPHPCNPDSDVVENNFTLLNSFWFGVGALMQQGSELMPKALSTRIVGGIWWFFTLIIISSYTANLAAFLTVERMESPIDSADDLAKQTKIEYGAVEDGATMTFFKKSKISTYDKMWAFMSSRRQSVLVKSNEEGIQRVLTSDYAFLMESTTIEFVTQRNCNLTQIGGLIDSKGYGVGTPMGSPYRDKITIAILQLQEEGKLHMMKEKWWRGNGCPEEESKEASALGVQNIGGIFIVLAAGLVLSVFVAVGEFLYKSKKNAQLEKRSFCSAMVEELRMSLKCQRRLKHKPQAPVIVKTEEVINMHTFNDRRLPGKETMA
hGluN1-FA,TL/hGluN3A, sequence (Q8TCU5 24-1115, other chains not shown): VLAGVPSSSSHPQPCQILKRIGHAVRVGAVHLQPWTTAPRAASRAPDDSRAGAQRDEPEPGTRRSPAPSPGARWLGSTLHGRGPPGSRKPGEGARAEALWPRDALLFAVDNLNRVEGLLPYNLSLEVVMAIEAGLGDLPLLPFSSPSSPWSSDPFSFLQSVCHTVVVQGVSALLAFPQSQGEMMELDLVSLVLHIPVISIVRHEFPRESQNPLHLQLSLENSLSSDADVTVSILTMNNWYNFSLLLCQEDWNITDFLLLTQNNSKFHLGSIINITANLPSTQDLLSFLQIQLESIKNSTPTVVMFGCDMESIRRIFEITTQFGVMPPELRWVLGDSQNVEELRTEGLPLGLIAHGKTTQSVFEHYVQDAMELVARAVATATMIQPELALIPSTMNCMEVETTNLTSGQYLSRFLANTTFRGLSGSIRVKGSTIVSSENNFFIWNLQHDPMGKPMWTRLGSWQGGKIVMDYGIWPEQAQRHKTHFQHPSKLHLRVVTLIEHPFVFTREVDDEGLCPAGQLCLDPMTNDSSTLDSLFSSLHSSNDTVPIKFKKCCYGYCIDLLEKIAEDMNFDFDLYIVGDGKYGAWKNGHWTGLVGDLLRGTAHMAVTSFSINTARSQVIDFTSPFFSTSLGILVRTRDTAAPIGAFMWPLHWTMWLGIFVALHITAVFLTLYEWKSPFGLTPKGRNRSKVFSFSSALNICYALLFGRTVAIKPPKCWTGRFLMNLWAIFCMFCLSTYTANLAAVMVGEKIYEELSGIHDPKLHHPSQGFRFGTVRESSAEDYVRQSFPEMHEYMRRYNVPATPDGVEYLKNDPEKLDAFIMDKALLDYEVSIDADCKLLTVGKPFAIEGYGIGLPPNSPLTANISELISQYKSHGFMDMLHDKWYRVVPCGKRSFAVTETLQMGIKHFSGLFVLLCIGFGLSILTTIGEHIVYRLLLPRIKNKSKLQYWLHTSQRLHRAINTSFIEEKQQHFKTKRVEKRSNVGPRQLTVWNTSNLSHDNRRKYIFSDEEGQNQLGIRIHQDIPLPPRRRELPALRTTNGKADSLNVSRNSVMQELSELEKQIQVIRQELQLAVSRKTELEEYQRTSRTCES
T2 sequence (P19490 19-907): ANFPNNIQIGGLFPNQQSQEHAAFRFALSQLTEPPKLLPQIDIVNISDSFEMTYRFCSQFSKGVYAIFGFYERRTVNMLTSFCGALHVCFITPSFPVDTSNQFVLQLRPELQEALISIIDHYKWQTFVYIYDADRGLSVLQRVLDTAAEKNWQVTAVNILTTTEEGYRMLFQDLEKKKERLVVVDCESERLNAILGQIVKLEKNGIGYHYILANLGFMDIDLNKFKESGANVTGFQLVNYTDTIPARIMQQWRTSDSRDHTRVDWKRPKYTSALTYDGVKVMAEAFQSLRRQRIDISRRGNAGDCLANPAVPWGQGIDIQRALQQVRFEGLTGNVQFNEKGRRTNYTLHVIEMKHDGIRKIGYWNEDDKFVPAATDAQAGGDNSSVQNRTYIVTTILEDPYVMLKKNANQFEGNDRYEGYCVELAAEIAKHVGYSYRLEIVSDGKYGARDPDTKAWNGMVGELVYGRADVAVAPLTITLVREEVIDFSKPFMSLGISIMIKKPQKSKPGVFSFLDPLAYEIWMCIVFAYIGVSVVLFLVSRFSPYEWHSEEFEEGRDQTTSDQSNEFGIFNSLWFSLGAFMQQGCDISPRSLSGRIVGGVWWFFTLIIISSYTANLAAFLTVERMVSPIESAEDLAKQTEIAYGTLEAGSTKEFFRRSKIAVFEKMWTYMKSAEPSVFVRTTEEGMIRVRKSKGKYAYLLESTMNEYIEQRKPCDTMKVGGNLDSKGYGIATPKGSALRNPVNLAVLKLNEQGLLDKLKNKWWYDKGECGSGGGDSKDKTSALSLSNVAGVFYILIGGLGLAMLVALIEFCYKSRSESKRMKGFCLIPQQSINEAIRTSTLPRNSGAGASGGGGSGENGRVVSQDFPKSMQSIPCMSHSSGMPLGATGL

% control GluK2 [1]: 100 ± 1.0% | % control hGluN1-FA,TL/hGluN3A [2]: 95 ± 2.3% | % control GluA1 [4]: 100 ± 2.0%
SMILES: O=C(O)CC(F)(F)C(=O)N1N=C(c2c(-c3ccc(Cl)cc3)c3ccccc3[nH]c2=O)C[C@H]1c1ccc(Cl)cc1 [(S)-(−)-2i]
% control hP2x [3]: 108 ± 0.53% | % control hGluA3-L531Y [5]: 105 ± 1.2%
